Experimental data as given in patent US20250333394A1, “Tiparp Inhibitor Compounds” (AbbVie Inc., priority 2024, published 2025).
pIC50: −log10 of the molar value.

Experiments:
MC-38 (Ker) tumors = assay: MC-38 (Ker) syngeneic model efficacy; assay type: in vivo, mouse; details: PO once daily up to 21 days, C57BL/6 mice
Procedure: The murine cell line MC-38 derived from C57BL6 murine colon adenocarcinoma cells was obtained from Kerafast (Boston, MA, USA). A suspension of 2.5×10^5 cells in culture medium mixed with Matrigel® (Corning Life Sciences, Lowell, MA, USA; 1:1, volume:volume) was injected subcutaneously in the right hind flank of female C57BL/6 mice to generate tumor formation. Treatment started when the size of the flank tumors was approximately 120 mm^3. Vehicle and four different doses of Example 1 were administered once daily to each of eight mice at each dose level for up to 21 days. Each administration consisted of a single 0.2 mL oral (PO) dose in a vehicle formulation (10% ethanol, 30% PEG300, and 60% PHOSAL® 50 PG).

TIPARP GST-(TEV) = TIPARP GST-(TEV) (Homo sapiens (Human), UniProt Q7Z3E1); assay: TR-FRET binding assay, TIPARP
Method in brief: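 N-terminal GST-TEV-tagged human TIPARP with protein/probe mix in 50 mM Tris-HCl pH 8.0, 5 mM MgCl2, 5 µM ZnCl2, 1 mM DTT, 0.15% BSA, 0.01% Triton X-100, plus 1 nM Tb-anti-GST antibody. Compounds at 30 µM to 0.5 nM final, 3-fold steps. TR-FRET ratio read after 2 h at ambient temperature.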

Sequence of TIPARP GST-(TEV) (Q7Z3E1 441-657): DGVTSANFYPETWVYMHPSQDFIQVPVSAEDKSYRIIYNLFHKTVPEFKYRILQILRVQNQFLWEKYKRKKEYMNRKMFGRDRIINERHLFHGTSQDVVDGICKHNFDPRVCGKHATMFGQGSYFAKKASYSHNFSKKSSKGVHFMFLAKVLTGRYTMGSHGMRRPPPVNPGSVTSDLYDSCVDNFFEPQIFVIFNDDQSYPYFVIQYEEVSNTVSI

## C[C@@H]1CN(c2ncc(C(F)(F)F)cn2)CCN1C(=O)[C@H]1C[C@@H](c2c[nH]c(=O)c(C(F)(F)F)c2)C1 [Example 1, 5-[(1S,3s)-3-{(2R)-2-methyl-4-[5-(trifluoromethyl)pyrimidin-2-yl]piperazine-1-carbonyl}cyclobutyl]-3-(trifluoromethyl)pyridin-2(1H)-one]
MC-38 (Ker) tumors; Dose A
  maximum tumor growth inhibition (TGIMax): 46%
MC-38 (Ker) tumors; Dose B
  maximum tumor growth inhibition (TGIMax): 77%
MC-38 (Ker) tumors; Dose C
  maximum tumor growth inhibition (TGIMax): 98%
MC-38 (Ker) tumors; Dose D
  maximum tumor growth inhibition (TGIMax): 99%
TIPARP GST-(TEV); TR-FRET, Probe 1, 2 hours incubation
  pIC50: 8.62
TIPARP GST-(TEV); ratio of PARP1 GST IC50 to TIPARP GST-(TEV) IC50
  PARP1/TIPARP IC50 Ratio: 1140
